In one data set the target is T1, dopamine D2 receptor (Homo sapiens, UniProt P14416).
T1 construct: host or cells: A9L cells (membranes)
Nature of the data set: Dopamine D2 binding assay ([3H]-spiperone, membranes of transfected A9L cells, run by Cerep). The following applies: recombinant human D2, [3H]-spiperone 0.3 nM. How it is done:
(§1) The dopamine D2 and D4 binding assays, used to determine binding affinities (Ki) illustrated in Table 1, were conducted according to standard procedures known to those in the art and are summarized herein.
(§2) Briefly, receptor binding assays at the dopamine D2 and D4 receptors were carried out in membranes from cell lines expressing the recombinant human subtypes. […] Specific binding was defined as the difference between total binding and nonspecific binding. Ki values were determined using the Cheng-Prusoff equation and are illustrated in Table 1.

The subject of data set [1] is penile erection in Wistar rats. Nature of the data set: Rat penile erection model. It counts as in vivo. The settings on record: subcutaneous; for Incidence (%) of penile erections: 60 minutes observation; for facilitation of penile erections in rats (in words, with effective dose range): versus vehicle. How it is done:
Wistar rats were used as a primary animal model to study penile erection in vivo. All experiments were carried out between 9:00 AM and 3:00 PM in a diffusely illuminated testing room with a red light. The rats were weighed and allowed to adapt to the testing room for 60 minutes before the beginning of experiments. Rats were placed in individual transparent cages (20×30×30 cm) after subcutaneous drug injection. The number of penile erections was recorded by direct observation for a period of 60 minutes after drug dosing.

For data set [2], the system named is emesis in male Fitch ferrets. As to the kind of experiment: Emesis model in ferrets. The data set is classed as in vivo. The settings on record: ferret, subcutaneous; for Incidence (%) of emesis: 90 minutes observation; for induction of emesis (in words): all doses tested. The protocol:
Male Fitch ferrets (body weights 1.0-1.5 kg) were fasted overnight before experimentation. Animals were placed individually in observation cages following subcutaneous administration of drug and observed for drug-induced nausea and emesis for a period of 90 minutes following drug injection. Nausea was characterized by behaviors such as licking, gagging, backing, head burying, and intense abdominal grooming. Emesis was usually preceded by these behaviors and was characterized by rhythmic abdominal contractions which were associated with vomiting or retching movement. The number of ferrets induced to emesis was recorded and expressed as incidence (%) in Tables 5-7.

Data set [3] addresses T2, dopamine D4 receptor (Homo sapiens, UniProt P21917).
T2 sequence (P21917 1-419): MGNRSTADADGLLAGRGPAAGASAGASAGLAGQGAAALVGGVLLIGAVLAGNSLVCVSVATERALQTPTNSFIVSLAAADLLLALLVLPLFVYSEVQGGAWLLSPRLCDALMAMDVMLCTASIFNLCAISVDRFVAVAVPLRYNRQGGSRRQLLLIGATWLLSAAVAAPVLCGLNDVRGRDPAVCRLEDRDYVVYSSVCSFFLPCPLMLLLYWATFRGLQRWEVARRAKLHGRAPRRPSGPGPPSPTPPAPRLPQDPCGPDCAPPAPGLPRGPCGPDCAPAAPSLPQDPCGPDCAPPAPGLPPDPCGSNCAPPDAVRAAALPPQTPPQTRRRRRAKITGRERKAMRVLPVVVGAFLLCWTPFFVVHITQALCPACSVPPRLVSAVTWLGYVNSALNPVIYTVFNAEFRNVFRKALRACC
The following applies: cited literature; cited from earlier work.

Data set [4] has as its target T2, dopamine D4 receptor. Nature of the data set: Dopamine D4 binding assay ([3H]-spiperone, membranes of transfected CHO cells, run by Cerep). Also on record: host or cells: CHO cells (membranes). The settings on record: recombinant human D4, [3H]-spiperone 0.5 nM. The protocol:
as §1, §2

Data set [5] has as its target T3, human D4 receptor (Homo sapiens, UniProt P21917).
T3 sequence (P21917 1-419): T2 sequence (P21917 1-419)
Also on record: expressed in transfected cells. The settings on record: CHO cells, read-out: EC50 inhibition of forskolin-stimulated cAMP accumulation; cited from earlier work. (Changes in cAMP serve as a functional read-out for many G protein-coupled receptors.)

For data set [6], the target named is T3, human D4 receptor. As to the kind of experiment: FLIPR calcium assay in HEK293 cells expressing human D4 receptor co-transfected with Gqo5 chimera. It counts as cell-based. Also on record: expressed in transfected cells; host or cells: HEK293 cells, stably transfected, with Gqo5 chimera. The protocol: The FLIPR assay is a functional assay that can be conducted in HEK293 cells expressing the human D4 receptor, co-transfected with the Gqo5 protein chimera. Expression of the G-protein chimera allows for the mobilization of intracellular calcium after activation of the D4 receptor. Cells are prepared by plating the stably transfected D4-HEK293 cells into each well of 96 well plates. Cells are cultured until they reach confluence (approximately 48 hours). Media is removed from the plate and media containing the fluorescent calcium detecting dye Fluo-4 is added. Cells are incubated at room temperature for one hour. Cells are then washed three times with phosphate buffered saline and 150 μl PBS is added. Compounds to be tested are diluted in a second 96-well plate. The plate containing the cells is placed in fluorescent plate reader (FLIPR) and the reaction is begun by adding 50 μl of compound solution to all the wells simultaneously. Fluorescent signal is measured for 60 seconds sampling at 1 second intervals. The signal derived from 10 μM dopamine is used as 100% and a compound dose-response curve is normalized to determine the percent efficacy relative to dopamine. Dose response curves are analyzed to determine EC50 (nM).

Results on 3 compounds are retold here after US20020103105A1, “Use of selective dopamine D4 receptor agonists for treating sexual dysfunction” (priority 2000, published 2002).

Structures are written as SMILES. “And” between values parts separate entries of the source, which are not always exact repeats. Identical values can stand only once. Like-named read-outs stand apart in the source and are kept apart here.

T1 sequence (P14416 whole entry): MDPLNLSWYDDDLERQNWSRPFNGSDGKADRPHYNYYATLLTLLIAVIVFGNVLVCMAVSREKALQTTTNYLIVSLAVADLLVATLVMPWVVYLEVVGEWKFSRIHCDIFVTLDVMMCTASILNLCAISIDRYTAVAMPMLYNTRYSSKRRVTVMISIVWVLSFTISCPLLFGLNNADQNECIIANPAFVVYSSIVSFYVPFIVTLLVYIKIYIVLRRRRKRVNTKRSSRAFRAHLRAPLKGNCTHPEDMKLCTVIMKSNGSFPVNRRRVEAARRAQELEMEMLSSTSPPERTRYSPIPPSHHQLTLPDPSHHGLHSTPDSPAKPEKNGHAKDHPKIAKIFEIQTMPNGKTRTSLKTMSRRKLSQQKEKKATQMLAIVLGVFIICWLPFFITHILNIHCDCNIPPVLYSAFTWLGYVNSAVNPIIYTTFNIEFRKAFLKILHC

The term Ki denotes the dissociation constant of the complex between target and ligand, obtained from inhibition or displacement. One may read the EC50 as the concentration at which the effect is half-maximal. As to `Fc1ccc2[nH]c(CN3CCN(c4ccccn4)CC3)cc2c1` [5-fluoro-2-{[4-(2-pyridinyl)-1-piperazinyl]methyl}-1H-indole], the Ki was more than 1000 nM at dopamine D2 receptor, 6 nM on dopamine D4 receptor [3] and 2.6 nM on dopamine D4 receptor [4]. The “Incidence (%) of penile erections” value in data set [1] (0.3 μmol/kg) was 60%; in data set [1] (1.0 μmol/kg) it was 90%; in data set [1] (3.0 μmol/kg), 90%. In addition, the “facilitation of penile erections in rats (in words, with effective dose range)” value (“facilitation of penile erections in rats” for short) in data set [1] is “significant facilitation of penile erections in rats for doses 1.0 μmol/kg and 3.0 μmol/kg”. The “Incidence (%) of emesis” value in data set [2] (0.1 μmol/kg), in data set [2] (0.3 μmol/kg), in data set [2] (1.0 μmol/kg) and in data set [2] (3.0 μmol/kg) was 0% in each case. Moreover, in data set [2], the “induction of emesis (in words)” value was “did not induce emesis at any dose”. For the same compound, on dopamine D4 receptor [3], the “selectivity for dopamine D4 receptor compared to D2 receptor (literature)” value is recorded as more than 100 fold. Moreover, the EC50 on human D4 receptor [5] was 5.8 nM; at human D4 receptor [6] (D4-HEK293 cells, Gqo5), 32 nM. Further, the Emax on human D4 receptor [6] (HEK293, relative to 10 μM dopamine = 100%, read-out: Maximum Response FLIPR) was found to be 46%. At human D4 receptor [6] (Table A data), the “agonism at D4 receptor in FLIPR assay (in words)” value is reported as “agonists”.
As to `CN1CCc2cccc3c2C1Cc1ccc(O)c(O)c1-3` (stereo not shown) [Apomorphine, 5,6,6a,7-tetrahydro-6-methyl-4H-dibenzo[de,g]quinoline-10,11-diol], the “Incidence (%) of penile erections” value in data set [1] (0.003 μmol/kg) was 28%; in data set [1] (0.01 μmol/kg) it was 56%; in data set [1] (0.03 μmol/kg), 69%; in data set [1] (0.1 μmol/kg), 86% and 90% and 92%; in data set [1] (0.1 μmol/kg, listed as apomorphine) it was 86% and 90%; in data set [1] (0.3 μmol/kg) it was 66%. Besides, in data set [1] (1.0 μmol/kg), the “Incidence (%) of penile erections” value is 25%. Besides, the “facilitation of penile erections in rats” value in data set [1] is reported as “significant facilitation of penile erections in rats for doses 0.01 μmol/kg to 0.3 μmol/kg”. For the same compound, the “Incidence (%) of emesis” value is 32% in data set [2] (0.1 μmol/kg); 83% and 82% in data set [2] (0.3 μmol/kg); 83% in data set [2] (0.3 μmol/kg, listed as apomorphine); 48% in data set [2] (1.0 μmol/kg); 32% in data set [2] (3.0 μmol/kg); 32% in data set [2] (10.0 μmol/kg). Besides, in data set [2], the “induction of emesis (in words)” value is listed as “induced emesis at all doses”.
Consider `Cc1cccc(C(=O)NCN2CCN(c3ccccc3C#N)CC2)c1` [N-{[4-(2-cyanophenyl)-1-piperazinyl]methyl}-3-methylbenzamide], for which the Ki at dopamine D2 receptor was more than 1000 nM. For the same compound, the “Incidence (%) of penile erections” value is reported as 42% in data set [1] (0.03 μmol/kg), 71% in data set [1] (0.1 μmol/kg), 79% in data set [1] (0.3 μmol/kg) and 68% in data set [1] (1.0 μmol/kg). Besides, the “facilitation of penile erections in rats” value in data set [1] was “significant facilitation of penile erections in rats for doses 0.1 μmol/kg to 1.0 μmol/kg”. Besides, the “Incidence (%) of emesis” value in data set [2] (0.1 μmol/kg), in data set [2] (0.3 μmol/kg), in data set [2] (1.0 μmol/kg) and in data set [2] (3.0 μmol/kg) was 0% in each case. Besides, the “induction of emesis (in words)” value in data set [2] is “did not induce emesis at any dose”.
